Measurements reported in patent US20120142601A1, “Modified Peptides and Uses Thereof” (MUSC Foundation for Research Development, priority 2009, published 2012).
Non-standard residues stand in square brackets, D forms with d. Residues, ends and D or L forms follow the SMILES beside them. No end group written: not given here. *: point of attachment. NMeR = CN[C@@H](CCCNC(=N)N)C(=O)O; Tle = CC(C)(C)[C@H](N)C(=O)O; X1 = C[C@@H](CCCCCN)C(=O)*

Columns and labels:
Catalepsy (bar test) = settings: 5 mg/kg
Experimental: (§1) In laboratory tests, catalepsy is characterized by the inability of an animal to correct its position after placement in an unnatural posture. Catalepsy tests may be greatly influenced by a number of variables. These include stress-induced inhibition of catalepsy caused by a new environment and the contribution of learned “pseudo-catalepsy” that may result upon repeated measures with the same animal. To circumvent these potential confounding factors, tests are performed on an animal only once in a quiet, controlled environment,
(§2) Finally, the bar test was utilized to measure catalepsy as a predictor of EPSEs in humans.

[1] = cited from earlier work
[2] = in vivo; cited from earlier work
NTR1 = NTR1 (Homo sapiens, UniProt P30989); settings: cited from earlier work
Sequence of NTR1 (P30989 whole entry, species assumed): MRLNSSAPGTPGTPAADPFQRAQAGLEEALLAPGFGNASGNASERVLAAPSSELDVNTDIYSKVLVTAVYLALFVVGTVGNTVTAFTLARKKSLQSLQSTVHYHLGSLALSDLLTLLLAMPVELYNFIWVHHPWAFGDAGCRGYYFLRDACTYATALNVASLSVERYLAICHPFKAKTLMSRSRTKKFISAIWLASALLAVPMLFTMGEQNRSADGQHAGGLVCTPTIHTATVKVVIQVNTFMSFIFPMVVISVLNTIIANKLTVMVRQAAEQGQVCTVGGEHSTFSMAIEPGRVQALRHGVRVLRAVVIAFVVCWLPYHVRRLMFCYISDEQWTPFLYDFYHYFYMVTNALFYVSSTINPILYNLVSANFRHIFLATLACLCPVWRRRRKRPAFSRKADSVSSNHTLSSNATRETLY

[3] = Hypothermia studies in the male Sprague-Dawley rat with various compounds; assay type: in vivo; settings: dose 1 mg/kg in saline
Experimental: Hypothermia studies in the male Sprague-Dawley rat were conducted using different compounds (dosed in saline) and the results are summarized in Table 1. For each compound, the maximum decrease in temperature (Δtemp) and the area under the curve for hypothermia versus a saline control (AUC) were measured.

[4] = rat, in vivo
Experimental: as §1, §2

## CC(C)C[C@H](NC(=O)[C@@H](NC(=O)[C@H](Cc1ccc(O)cc1)NC(=O)[C@@H]1CCCN1C(=O)[C@H](CCCNC(=N)N)NC(=O)[C@@H](C)CCCCCN)C(C)(C)C)C(=O)O [ABS-201] (X1-RPY[Tle]L-OH)
Catalepsy (bar test)
  catalepsy after peripheral administration: does not induce catalepsy

## N-Me-L-Arg-L-Lys-L-Pro-L-neoTyr-t-Leu-L-Leu [NT69L]
[1]; 1 mg/kg injection, 90 min post-injection
  hypothermic effect: −5.3 °C
[1]; chronic administration
  effect of chronic administration on hypothermic effect: tolerance to its hypothermic effect
[1]; oral
  hypothermic response after oral administration: only a slight hypothermic response
[2]
  hyperactivity induced by cocaine and d-amphetamine: attenuated hyperactivity
NTR1
  Kd: 1.55 nM

## N-Me-L-Arg-L-Lys-L-Pro-L-Trp-t-Leu-L-Leu ([NMeR]KPW[Tle]L) [SEQ ID NO:2, reference compound]
[1]; oral
  central activity after oral administration: not able to elicit central activity
NTR1
  loss of binding affinity at NTR1: 700 fold
[3]
  AUC (area under the curve for hypothermia versus saline control): 700
  Δtemp (maximum decrease in temperature): −4.2

## O=C(CCCN1CCC(O)(c2ccc(Cl)cc2)CC1)c1ccc(F)cc1 [Haloperidol]
[4]
  duration of induced catalepsy: greater than 30 sec
